Calls of active or inactive are those of the source. No cut-off for these calls is given here.
What was measured:
Cavia porcellus [1] = experiment: In vivo inhibitory dose against PAF-induced bronchoconstriction in guinea pig upon intravenous administration after one-minute pre-treatment time.; assay type: functional; conditions: read-out: ID50 (the source's name)
Cavia porcellus [2] = experiment: In vivo inhibition against PAF-induced bronchoconstriction in guinea pig at 1 mg/kg dose upon peroral administration after […] pre-treatment time.; assay type: functional; conditions: route oral
Cavia porcellus [3] = experiment: In vivo inhibitory dose against PAF-induced bronchoconstriction in guinea pig upon intravenous administration after one-minute pretreatment time; IA=Inactive; assay type: functional, organism-based
Cavia porcellus [4] = experiment: In vivo inhibitory dose against PAF-induced bronchoconstriction in guinea pig upon peroral administration after […] pretreatment time; assay type: functional; conditions: po, read-out: ID50 (the source's name)
[5] = In vitro for platelet activating factor receptor antagonist activity in a binding assay using washed whole dog platelets.

| SMILES | ED50 (Cavia porcellus [1]) [mg/kg] | inhibition in vivo at 1 mg/kg (Cavia porcellus [2]) [%] | ID50 (Cavia porcellus [3]) | ED50 (Cavia porcellus [4]) [mg/kg] | IC50 [5] [nM] |
| --- | --- | --- | --- | --- | --- |
| Cc1nnc2n1-c1sc(/C=C\C(=O)N3CCOCC3)cc1C(c1ccccc1Cl)=NC2 | 0.06 | 20 |  |  |  |
| Cc1cc(C#Cc2cc3c(s2)-n2c(C)nnc2CN=C3c2ccccc2Cl)cc2c1OC(C)(C)C2 |  |  | inactive |  |  |
| Cc1nnc2n1-c1sc(C#CCO)cc1C(c1ccccc1Cl)=NC2 | 0.02 | 20 |  |  |  |
| Cc1nnc2n1-c1sc(CCc3ccc(CC(C)C)cc3)cc1C(c1ccccc1Cl)=NC2 | 0.002 | 99 |  | 0.03 |  |
| Cc1nnc2n1-c1sc(CCc3ccc(-n4ccnc4)cc3)cc1C(c1ccccc1Cl)=NC2 | 0.003 | 95 |  | 0.4 |  |
| Cc1nnc2n1-c1sc(-c3[nH]nnc3C(=O)N3CCOCC3)cc1C(c1ccccc1Cl)=NC2 |  |  | inactive |  |  |
| Cc1nnc2n1-c1sc(C#Cc3ccc(CC(C)C)cc3)cc1C(c1ccccc1Cl)=NC2 | 0.3 | 2 |  |  |  |
| Cc1nnc2n1-c1sc(C#Cc3ccccc3)cc1C(c1ccccc1Cl)=NC2 | 3 | 6 |  |  |  |
| Cc1nnc2n1-c1sc(C#Cc3ccc4c(c3)CCO4)cc1C(c1ccccc1Cl)=NC2 | 0.2 | 7 |  |  |  |
| Cc1nnc2n1-c1sc(CCc3ccc(C4CCCCC4)cc3)cc1C(c1ccccc1Cl)=NC2 | 0.005 | 68 |  | 0.4 |  |
| Cc1nnc2n1-c1sc(C#Cc3ccc4c(c3)CCC4)cc1C(c1ccccc1Cl)=NC2 | 0.2 | 20 |  |  |  |
| CCCCc1ccc(CCc2cc3c(s2)-n2c(C)nnc2CN=C3c2ccccc2Cl)cc1 | 0.003 | 98 |  | 0.2 |  |
| Cc1nnc2n1-c1sc(/C=C\c3ccc(C4CCCCC4)cc3)cc1C(c1ccccc1Cl)=NC2 | 0.03 | 85 |  | 0.4 |  |
| Cc1nnc2n1-c1sc(I)cc1C(c1ccccc1Cl)=NC2 | 0.2 | 4 |  |  | 370 |
| Cc1nnc2n1-c1sc(/C=C\c3ccc4c(c3)CCC4)cc1C(c1ccccc1Cl)=NC2 | 0.03 | 58 |  | 0.7 |  |
| Cc1nnc2n1-c1sc(CCc3ccc4c(c3)CCC4)cc1C(c1ccccc1Cl)=NC2 | 0.04 | 99 |  | 0.03 |  |
| Cc1nnc2n1-c1sc(CCC(=O)N3CCOCC3)cc1C(c1ccccc1Cl)=NC2 [APAFANT] | 0.03 | 42 |  | 1.2 |  |
| Cc1nnc2n1-c1sc(/C=C\c3ccccn3)cc1C(c1ccccc1Cl)=NC2 | 0.05 | 20 |  |  |  |

| SMILES | ED50 (Cavia porcellus [1]) [mg/kg] | inhibition in vivo at 1 mg/kg (Cavia porcellus [2]) [%] | ID50 (Cavia porcellus [3]) | ED50 (Cavia porcellus [4]) [mg/kg] | IC50 [5] [nM] |
| --- | --- | --- | --- | --- | --- |
| CCCCc1ccc(C#Cc2cc3c(s2)-n2c(C)nnc2CN=C3c2ccccc2Cl)cc1 | 0.2 | 6 |  |  |  |
| Cc1nnc2n1-c1sc(Br)cc1C(c1ccccc1Cl)=NC2 [BROTIZOLAM] | 0.5 | 11 |  |  |  |
| Cc1nnc2n1-c1sc(C#CC(=O)N3CCOCC3)cc1C(c1ccccc1Cl)=NC2 | 0.5 | 16 |  |  |  |
| Cc1nnc2n1-c1sc(/C(CC(=O)N3CCOCC3)=N\N)cc1C(c1ccccc1Cl)=NC2 | 0.5 | 12 |  |  |  |
| Cc1nnc2n1-c1sc(C#Cc3cccc4ccccc34)cc1C(c1ccccc1Cl)=NC2 | 0.03 | 14 |  |  |  |
| Cc1nnc2n1-c1sc(CCc3ccc4c(c3)CCO4)cc1C(c1ccccc1Cl)=NC2 | 0.003 | 44 |  |  |  |
| Cc1nnc2n1-c1sc(/C=C\c3ccc(CC(C)C)cc3)cc1C(c1ccccc1Cl)=NC2 | 0.004 | 99 |  | 0.03 |  |
| C#Cc1cc2c(s1)-n1c(C)nnc1CN=C2c1ccccc1Cl | 0.02 | 9 |  |  |  |
| Cc1nnc2n1-c1sc(C#Cc3ccc(C4CCCCC4)cc3)cc1C(c1ccccc1Cl)=NC2 | 0.3 | 22 |  |  |  |
| Cc1nnc2n1-c1sc(C#C[Si](C)(C)C)cc1C(c1ccccc1Cl)=NC2 | 0.3 | 28 |  |  |  |
| CCCCc1ccc(/C=C\c2cc3c(s2)-n2c(C)nnc2CN=C3c2ccccc2Cl)cc1 | 0.0004 | 93 |  | 0.35 |  |
| Cc1nnc2n1-c1sc(C#Cc3ccccn3)cc1C(c1ccccc1Cl)=NC2 | 0.06 | 5 |  |  |  |
| Cc1nnc2n1-c1sc(C#Cc3ccc(-c4ccccn4)s3)cc1C(c1ccccc1Cl)=NC2 | 0.003 | 93 |  | 0.08 |  |
| Cc1cc(CCc2cc3c(s2)-n2c(C)nnc2CN=C3c2ccccc2Cl)cc2c1OC(C)(C)C2 | 0.01 | 96 |  | 0.3 |  |
| Cc1nnc2n1-c1sc(CCc3ccc(-c4ccccn4)s3)cc1C(c1ccccc1Cl)=NC2 | 0.003 | 89 |  | 0.4 |  |
| Cc1nnc2n1-c1sc(-c3cc(O)[nH]n3)cc1C(c1ccccc1Cl)=NC2 |  |  | inactive |  |  |
| Cc1nnc2n1-c1sc(/C=C/C(=O)N3CCOCC3)cc1C(c1ccccc1Cl)=NC2 | 0.4 | 27 |  |  |  |
